Reference: ChEMBL document CHEMBL5696442, “Discovery of type II inhibitors of TGFβ-activated kinase 1 (TAK1) and mitogen-activated protein kinase kinase kinase kinase 2 (MAP4K2)” (J Med Chem, 2015)
Calls of active or inactive are those of the source. The rule behind the calls is not given here.

Assays:
[1] = molecular target: Mitogen-activated protein kinase 14 (Homo sapiens, UniProt Q16539); test: Inhibition of p38alpha Lys2 labeling site in human Huh-7 cells at 1 uM by KiNativ Profiling analysis relative to control; format: cell-based
[2] = molecular target: T1, Serine/threonine-protein kinase greatwall (Homo sapiens) (UniProt Q96GX5); test: Inhibition of MASTL Lys2 labeling site in human Huh-7 cells at 1 uM by KiNativ Profiling analysis relative to control; format: cell-based
T1 sequence (whole entry): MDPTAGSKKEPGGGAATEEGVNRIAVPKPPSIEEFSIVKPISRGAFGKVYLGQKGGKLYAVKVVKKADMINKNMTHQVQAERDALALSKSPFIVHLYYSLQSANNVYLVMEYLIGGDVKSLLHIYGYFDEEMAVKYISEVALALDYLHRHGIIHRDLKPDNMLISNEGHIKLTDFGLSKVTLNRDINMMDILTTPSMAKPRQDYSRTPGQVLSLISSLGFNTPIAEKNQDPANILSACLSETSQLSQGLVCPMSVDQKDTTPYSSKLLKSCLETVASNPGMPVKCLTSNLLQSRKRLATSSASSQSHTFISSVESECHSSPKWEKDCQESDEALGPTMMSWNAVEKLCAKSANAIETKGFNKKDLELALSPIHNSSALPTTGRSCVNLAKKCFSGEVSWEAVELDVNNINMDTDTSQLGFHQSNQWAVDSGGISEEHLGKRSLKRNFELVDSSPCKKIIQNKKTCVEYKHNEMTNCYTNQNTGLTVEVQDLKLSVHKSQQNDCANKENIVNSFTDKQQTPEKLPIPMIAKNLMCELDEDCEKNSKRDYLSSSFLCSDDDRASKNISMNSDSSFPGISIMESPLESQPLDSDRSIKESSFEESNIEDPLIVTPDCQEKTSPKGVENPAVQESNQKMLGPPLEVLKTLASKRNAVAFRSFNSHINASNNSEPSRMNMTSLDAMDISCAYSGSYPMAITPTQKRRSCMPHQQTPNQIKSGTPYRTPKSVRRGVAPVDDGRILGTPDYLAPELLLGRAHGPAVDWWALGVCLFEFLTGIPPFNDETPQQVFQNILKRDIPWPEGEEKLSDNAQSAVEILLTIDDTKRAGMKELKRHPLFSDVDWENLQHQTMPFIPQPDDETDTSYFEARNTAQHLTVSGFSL

[3] = molecular target: Interleukin-1 receptor-associated kinase 1 (Homo sapiens) (UniProt P51617); test: Inhibition of IRAK1 Lys2 labeling site in human Huh-7 cell lysate at 1 uM by KiNativ Profiling analysis relative to control; format: subcellular
[4] = molecular target: Phosphatidylinositol 4,5-bisphosphate 3-kinase catalytic subunit alpha isoform (Homo sapiens) (UniProt P42336); test: Inhibition of PIK3CA ATP labeling site in human Huh-7 cell lysate at 1 uM by KiNativ Profiling analysis relative to control; format: subcellular
[5] = molecular target: Mitogen-activated protein kinase kinase kinase kinase 4 (Homo sapiens, UniProt O95819); test: Inhibition of ZC1/HGK Lys2 labeling site in human Huh-7 cells at 1 uM by KiNativ Profiling analysis relative to control; format: cell-based
[6] = molecular target: Calcium/calmodulin-dependent protein kinase type II subunit alpha (Homo sapiens) (UniProt Q9UQM7); test: Inhibition of CaMK2a Lys2 labeling site in human Huh-7 cell lysate at 1 uM by KiNativ Profiling analysis relative to control; format: subcellular
[7] = molecular target: Dual specificity protein kinase CLK3 (Homo sapiens) (UniProt P49761); test: Inhibition of CLK3 (unknown origin) at 10 uM by Ambit Kinomescan binding assay
[8] = molecular target: Cyclin-dependent kinase 11B (Homo sapiens) (UniProt P21127); test: Inhibition of CDK11 (unknown origin) at 10 uM by Ambit Kinomescan binding assay relative to control; values are per cent of control
[9] = molecular target: DNA-dependent protein kinase catalytic subunit (Homo sapiens) (UniProt P78527); test: Inhibition of PRKDC ATP labeling site harbouring KGGSWIQEINVAEK in human Huh-7 cells at 1 uM by KiNativ Profiling analysis relative to control; format: cell-based
[10] = molecular target: AP2-associated protein kinase 1 (Homo sapiens) (UniProt Q2M2I8); test: Inhibition of AAK1 (unknown origin) at 10 uM by Ambit Kinomescan binding assay
[11] = tested on: Serine/threonine-protein kinase B-raf (Homo sapiens), P15056 [V600E]; test: Inhibition of BRAF V600E mutant (unknown origin) at 10 uM by Ambit Kinomescan binding assay relative to control
[12] = molecular target: Hepatocyte growth factor receptor (Homo sapiens) (UniProt P08581); test: Inhibition of MET ACT labeling site in human Huh-7 cells at 10 uM by KiNativ Profiling analysis relative to control; format: cell-based
[13] = molecular target: Insulin-like growth factor 1 receptor (Homo sapiens) (UniProt P08069); test: Inhibition of IGF1R (unknown origin) at 10 uM by Ambit Kinomescan binding assay
[14] = molecular target: Mitogen-activated protein kinase 7 (Homo sapiens) (UniProt Q13164); test: Inhibition of ERK5 (unknown origin) at 10 uM by Ambit Kinomescan binding assay
MEF = test: Inhibition of IL-1alpha induced p38 phosphorylation level in mouse MEF cells preincubated for 1 hr followed by IL-1 alpha stimulation and measured after 30 mins by Western blot analysis; format: functional, cell-based; conditions: dose 0.01-10 µM
[15] = molecular target: RAC-alpha serine/threonine-protein kinase (Homo sapiens) (UniProt P31749); test: Inhibition of AKT1 ATP Loop labeling site in human A-375 cells at 5 uM by KiNativ Profiling analysis relative to control; format: cell-based
[16] = tested on: Mast/stem cell growth factor receptor Kit (Homo sapiens), P10721 [V559D,V654A]; test: Inhibition of KIT V559D/V654A mutant (unknown origin) at 1 uM by Ambit Kinomescan binding assay relative to control; values are per cent of control
[17] = molecular target: Interleukin-1 receptor-associated kinase 3 (Homo sapiens) (UniProt Q9Y616); test: Inhibition of IRAK3 (unknown origin) at 1 uM by Ambit Kinomescan binding assay relative to control; values are per cent of control
[18] = molecular target: RAF proto-oncogene serine/threonine-protein kinase (Homo sapiens, UniProt P04049); test: Inhibition of RAF1 (unknown origin) Lys2 labeling site by KiNativ Profiling analysis
[19] = molecular target: Tyrosine-protein kinase ABL1 (Homo sapiens, UniProt P00519); test: Inhibition of nonphosphorylated ABL1 (unknown origin) at 1 uM by Ambit Kinomescan binding assay relative to control
[20] = molecular target: Tyrosine-protein kinase Fyn (Homo sapiens) (UniProt P06241); test: Inhibition of FYN (unknown origin) at 1 uM by Ambit Kinomescan binding assay relative to control; values are per cent of control
Chain of Tyrosine-protein kinase Fyn (Homo sapiens) (P06241 2-537 limits assumed): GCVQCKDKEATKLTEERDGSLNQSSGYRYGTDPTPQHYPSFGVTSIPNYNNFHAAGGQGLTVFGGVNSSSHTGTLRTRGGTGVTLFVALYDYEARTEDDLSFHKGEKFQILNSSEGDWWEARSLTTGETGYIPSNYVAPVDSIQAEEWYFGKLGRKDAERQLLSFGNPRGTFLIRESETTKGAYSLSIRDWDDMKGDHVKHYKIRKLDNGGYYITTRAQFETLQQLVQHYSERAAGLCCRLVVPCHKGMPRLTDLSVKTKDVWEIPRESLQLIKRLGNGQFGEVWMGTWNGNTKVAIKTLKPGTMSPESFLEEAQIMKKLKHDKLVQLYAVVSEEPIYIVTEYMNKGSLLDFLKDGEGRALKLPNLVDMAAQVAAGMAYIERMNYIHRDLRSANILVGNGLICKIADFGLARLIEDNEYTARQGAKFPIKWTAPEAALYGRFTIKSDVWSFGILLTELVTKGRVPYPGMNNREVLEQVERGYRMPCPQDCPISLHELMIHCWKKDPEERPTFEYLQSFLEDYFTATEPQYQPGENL

Chain of Mitogen-activated protein kinase kinase kinase kinase 4 (O95819 2-1239 limits assumed): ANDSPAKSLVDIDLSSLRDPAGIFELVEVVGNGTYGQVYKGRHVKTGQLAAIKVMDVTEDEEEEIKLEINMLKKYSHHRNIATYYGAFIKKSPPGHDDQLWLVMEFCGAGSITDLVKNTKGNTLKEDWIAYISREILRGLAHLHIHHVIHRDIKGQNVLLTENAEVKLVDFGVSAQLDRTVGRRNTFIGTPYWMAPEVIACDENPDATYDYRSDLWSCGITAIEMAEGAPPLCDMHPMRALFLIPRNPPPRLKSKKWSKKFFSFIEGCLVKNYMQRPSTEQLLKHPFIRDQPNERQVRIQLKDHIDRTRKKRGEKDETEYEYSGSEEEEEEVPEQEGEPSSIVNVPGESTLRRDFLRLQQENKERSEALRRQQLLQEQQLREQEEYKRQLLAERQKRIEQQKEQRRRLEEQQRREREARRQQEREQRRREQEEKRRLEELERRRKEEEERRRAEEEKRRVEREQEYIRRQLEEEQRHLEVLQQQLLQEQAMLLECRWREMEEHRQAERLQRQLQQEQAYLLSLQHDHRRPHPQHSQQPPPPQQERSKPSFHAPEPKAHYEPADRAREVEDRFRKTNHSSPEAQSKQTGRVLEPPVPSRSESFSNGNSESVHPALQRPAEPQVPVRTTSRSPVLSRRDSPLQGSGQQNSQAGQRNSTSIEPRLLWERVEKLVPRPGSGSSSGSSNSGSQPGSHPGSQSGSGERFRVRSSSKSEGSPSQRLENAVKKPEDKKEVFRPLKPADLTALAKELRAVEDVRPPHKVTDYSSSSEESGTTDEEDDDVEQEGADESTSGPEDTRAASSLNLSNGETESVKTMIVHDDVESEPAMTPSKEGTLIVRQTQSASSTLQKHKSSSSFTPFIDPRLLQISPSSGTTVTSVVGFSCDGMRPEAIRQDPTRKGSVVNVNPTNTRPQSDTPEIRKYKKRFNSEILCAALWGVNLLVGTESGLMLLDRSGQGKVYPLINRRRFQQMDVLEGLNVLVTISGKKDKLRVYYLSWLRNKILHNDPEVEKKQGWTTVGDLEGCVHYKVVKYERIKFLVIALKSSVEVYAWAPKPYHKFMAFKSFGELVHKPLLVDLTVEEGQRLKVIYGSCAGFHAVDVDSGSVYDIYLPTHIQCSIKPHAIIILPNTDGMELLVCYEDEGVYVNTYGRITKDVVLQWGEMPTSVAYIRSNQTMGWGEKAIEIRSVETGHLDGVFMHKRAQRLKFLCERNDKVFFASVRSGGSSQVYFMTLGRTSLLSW
Chain of AP2-associated protein kinase 1 (Homo sapiens) (Q2M2I8 whole entry, looked up): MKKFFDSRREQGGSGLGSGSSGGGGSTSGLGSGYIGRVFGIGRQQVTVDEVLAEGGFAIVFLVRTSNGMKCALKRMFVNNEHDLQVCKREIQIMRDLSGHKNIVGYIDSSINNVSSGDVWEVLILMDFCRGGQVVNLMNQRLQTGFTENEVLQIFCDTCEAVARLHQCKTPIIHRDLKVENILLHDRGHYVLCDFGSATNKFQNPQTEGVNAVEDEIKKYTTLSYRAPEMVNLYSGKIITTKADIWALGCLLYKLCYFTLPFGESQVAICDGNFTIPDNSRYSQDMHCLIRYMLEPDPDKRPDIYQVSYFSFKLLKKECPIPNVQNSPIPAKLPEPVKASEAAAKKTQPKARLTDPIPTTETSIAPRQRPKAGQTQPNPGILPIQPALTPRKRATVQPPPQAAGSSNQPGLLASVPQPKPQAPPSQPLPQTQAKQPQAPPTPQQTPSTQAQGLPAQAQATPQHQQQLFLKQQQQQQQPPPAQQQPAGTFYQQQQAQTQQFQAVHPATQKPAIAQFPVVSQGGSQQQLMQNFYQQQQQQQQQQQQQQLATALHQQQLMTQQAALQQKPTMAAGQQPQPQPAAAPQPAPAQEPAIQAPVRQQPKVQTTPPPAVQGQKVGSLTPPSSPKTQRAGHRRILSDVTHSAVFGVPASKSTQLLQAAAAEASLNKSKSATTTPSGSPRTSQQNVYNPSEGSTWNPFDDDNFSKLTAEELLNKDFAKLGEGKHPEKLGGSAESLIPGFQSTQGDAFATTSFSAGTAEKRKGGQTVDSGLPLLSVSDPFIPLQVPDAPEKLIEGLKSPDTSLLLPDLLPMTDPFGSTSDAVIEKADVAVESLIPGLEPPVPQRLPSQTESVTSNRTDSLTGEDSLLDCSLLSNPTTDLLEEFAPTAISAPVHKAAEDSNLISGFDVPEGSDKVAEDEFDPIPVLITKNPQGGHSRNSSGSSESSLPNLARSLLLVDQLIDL
Chain of RAF proto-oncogene serine/threonine-protein kinase (P04049 whole entry): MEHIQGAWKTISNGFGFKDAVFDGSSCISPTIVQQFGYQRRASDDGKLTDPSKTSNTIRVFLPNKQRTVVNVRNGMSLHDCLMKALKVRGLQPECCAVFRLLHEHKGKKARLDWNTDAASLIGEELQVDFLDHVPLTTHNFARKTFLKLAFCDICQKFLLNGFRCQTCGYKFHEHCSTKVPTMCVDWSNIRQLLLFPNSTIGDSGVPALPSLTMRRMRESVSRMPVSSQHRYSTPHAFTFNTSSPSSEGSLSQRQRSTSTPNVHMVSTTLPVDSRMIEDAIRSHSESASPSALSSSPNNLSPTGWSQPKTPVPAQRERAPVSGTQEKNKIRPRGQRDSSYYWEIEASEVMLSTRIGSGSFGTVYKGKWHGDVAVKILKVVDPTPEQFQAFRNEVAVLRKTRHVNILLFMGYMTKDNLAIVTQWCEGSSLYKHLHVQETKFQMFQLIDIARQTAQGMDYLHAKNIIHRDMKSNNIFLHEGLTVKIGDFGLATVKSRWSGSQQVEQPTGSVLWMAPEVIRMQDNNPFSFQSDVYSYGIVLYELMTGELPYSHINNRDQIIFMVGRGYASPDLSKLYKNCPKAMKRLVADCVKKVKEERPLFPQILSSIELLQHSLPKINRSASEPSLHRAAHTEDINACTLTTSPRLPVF
Chain of Interleukin-1 receptor-associated kinase 1 (Homo sapiens) (P51617 whole entry, looked up, canonical isoform): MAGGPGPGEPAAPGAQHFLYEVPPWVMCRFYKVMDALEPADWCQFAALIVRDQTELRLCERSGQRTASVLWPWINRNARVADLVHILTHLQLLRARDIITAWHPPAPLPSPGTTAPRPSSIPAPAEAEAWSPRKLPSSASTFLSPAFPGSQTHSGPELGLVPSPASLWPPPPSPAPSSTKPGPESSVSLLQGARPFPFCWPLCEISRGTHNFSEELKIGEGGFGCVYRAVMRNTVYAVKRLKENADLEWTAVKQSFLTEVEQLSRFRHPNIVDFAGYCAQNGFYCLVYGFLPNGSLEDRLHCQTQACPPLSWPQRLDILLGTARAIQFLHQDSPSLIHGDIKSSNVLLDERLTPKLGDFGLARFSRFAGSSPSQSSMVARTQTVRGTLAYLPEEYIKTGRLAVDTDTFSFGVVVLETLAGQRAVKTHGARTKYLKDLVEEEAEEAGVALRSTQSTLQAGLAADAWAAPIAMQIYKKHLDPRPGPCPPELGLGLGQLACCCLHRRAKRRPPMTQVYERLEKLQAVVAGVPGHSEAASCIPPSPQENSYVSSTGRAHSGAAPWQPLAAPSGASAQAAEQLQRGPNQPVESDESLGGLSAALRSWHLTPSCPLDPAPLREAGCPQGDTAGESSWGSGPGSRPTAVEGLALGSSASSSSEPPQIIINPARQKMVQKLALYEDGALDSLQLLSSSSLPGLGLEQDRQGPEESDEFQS
Chain of Interleukin-1 receptor-associated kinase 3 (Homo sapiens) (Q9Y616 whole entry): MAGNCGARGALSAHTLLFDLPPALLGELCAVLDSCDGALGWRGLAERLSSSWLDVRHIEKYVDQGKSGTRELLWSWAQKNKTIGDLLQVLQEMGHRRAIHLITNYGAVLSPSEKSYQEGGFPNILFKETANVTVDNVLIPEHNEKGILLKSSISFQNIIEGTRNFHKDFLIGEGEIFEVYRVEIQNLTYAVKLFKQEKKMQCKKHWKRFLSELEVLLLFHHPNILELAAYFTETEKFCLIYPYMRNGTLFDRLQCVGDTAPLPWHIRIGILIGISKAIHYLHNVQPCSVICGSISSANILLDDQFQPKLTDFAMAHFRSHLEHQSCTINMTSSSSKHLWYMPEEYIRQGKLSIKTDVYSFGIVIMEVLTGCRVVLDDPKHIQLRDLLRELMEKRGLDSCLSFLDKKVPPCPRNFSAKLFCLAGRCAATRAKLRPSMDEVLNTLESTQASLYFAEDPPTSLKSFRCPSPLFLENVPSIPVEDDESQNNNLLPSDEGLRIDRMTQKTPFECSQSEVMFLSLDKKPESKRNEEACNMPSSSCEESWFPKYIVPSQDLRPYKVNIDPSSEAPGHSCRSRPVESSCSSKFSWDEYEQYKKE
Chain of Mitogen-activated protein kinase 14 (Q16539 whole entry): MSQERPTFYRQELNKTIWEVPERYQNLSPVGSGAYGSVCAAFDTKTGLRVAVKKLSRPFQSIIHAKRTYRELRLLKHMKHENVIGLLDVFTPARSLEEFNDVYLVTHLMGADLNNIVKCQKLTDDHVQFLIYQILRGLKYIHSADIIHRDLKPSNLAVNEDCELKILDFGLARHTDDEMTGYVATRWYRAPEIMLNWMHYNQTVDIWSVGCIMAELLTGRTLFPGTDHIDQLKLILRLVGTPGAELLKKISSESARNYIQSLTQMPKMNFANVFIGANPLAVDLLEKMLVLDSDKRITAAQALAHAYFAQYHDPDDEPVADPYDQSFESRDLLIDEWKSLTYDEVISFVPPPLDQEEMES

CNc1cc(Oc2cc(C(=O)Nc3cc(N4CCN(C)CC4)cc(C(F)(F)F)c3)ccc2C)ncn1 gave an inhibition [1] of 22.6%, an inhibition [2] of -7.3% and an inhibition [3] of -6.9%. It also gave an inhibition [4] of 12.4%, an inhibition [5] of 9.7% and an inhibition [6] of 0.7%.
With CCN1CCN(Cc2ccc(NC(=O)c3ccc(C)c(Oc4ccnc5[nH]ccc45)c3)cc2C(F)(F)F)CC1 the inhibition [7] was “inactive”, the % of control [8] was 0.1% and the inhibition [9] was 0.9%. For the same compound, the inhibition [10] was “inactive”, the inhibition [11] was 4% and the inhibition [12] was -8%. For the same compound, the inhibition [13] was “inactive”, the inhibition [14] was “inactive” and the inhibition (MEF) was “Dose-Dependent Effect”.
For CCN1CCN(Cc2ccc(NC(=O)c3ccc(C)c(/C=C/c4cnc5[nH]ccc5c4OC)c3)cc2C(F)(F)F)CC1, the inhibition [15] was 10.4%, the residual activity [16] was 7.1% and the residual activity [17] was 76%. For the same compound, the IC50 [18] was 3.31 µM, the inhibition [19] was 0% and the percent of control [20] was 5.2%.
